Measurements as given in US5576319A, “Pyrrolo-pyridine derivatives” (Merck, Sharp & Dohme Ltd., priority 1994, dated 1996).
Where two headings read alike, the source gives them in different places.

Key:
[1] = target: T1, human dopamine D4 receptor subtype (Homo sapiens, UniProt P21917); assay: [3H]-Spiperone binding, displacement from human dopamine D4 receptor subtype expressed in clonal cell lines
T1 sequence (P21917 1-419): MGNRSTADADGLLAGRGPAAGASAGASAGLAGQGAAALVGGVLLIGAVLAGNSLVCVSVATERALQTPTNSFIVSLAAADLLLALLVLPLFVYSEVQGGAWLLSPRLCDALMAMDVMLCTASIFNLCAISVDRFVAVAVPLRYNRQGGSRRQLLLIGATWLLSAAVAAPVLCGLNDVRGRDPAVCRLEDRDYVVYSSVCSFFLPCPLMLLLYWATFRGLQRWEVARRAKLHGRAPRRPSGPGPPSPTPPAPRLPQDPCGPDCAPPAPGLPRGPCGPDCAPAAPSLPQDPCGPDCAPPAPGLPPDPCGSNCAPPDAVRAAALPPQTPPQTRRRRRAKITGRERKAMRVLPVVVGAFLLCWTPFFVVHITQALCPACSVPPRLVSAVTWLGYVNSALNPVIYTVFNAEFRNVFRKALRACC

[2] = target: T2, human dopamine D2 receptor subtype (Homo sapiens, UniProt P14416); assay: [3H]-Spiperone binding, displacement from human dopamine D2 receptor subtype expressed in clonal cell lines
T2 construct: expressed in transfected cells

rats = assay: Sedation: spontaneous motor activity of rats in novel cages with photocells (number of cage crossings); format: in vivo; conditions: rat
Source text: Representative compounds according to the invention have been tested for their effects on spontaneous motor activity occasioned by placing rats in novel cages equipped with photocells in order to determine the number of cage crossings. This is an art-recognised model of the sedation potential of a given test compound.

rat = assay: Extrapyramidal disorders: apomorphine-induced stereotypy in the rat; format: in vivo
Source text: 2. Extrapyramidal Disorders
Representative compounds according to the invention have been tested for their effect on apomorphine-induced stereotypy in the rat. This is an art-recognised model of the potential to induce extrapyramidal side-effects.

T2 sequence (P14416 whole entry): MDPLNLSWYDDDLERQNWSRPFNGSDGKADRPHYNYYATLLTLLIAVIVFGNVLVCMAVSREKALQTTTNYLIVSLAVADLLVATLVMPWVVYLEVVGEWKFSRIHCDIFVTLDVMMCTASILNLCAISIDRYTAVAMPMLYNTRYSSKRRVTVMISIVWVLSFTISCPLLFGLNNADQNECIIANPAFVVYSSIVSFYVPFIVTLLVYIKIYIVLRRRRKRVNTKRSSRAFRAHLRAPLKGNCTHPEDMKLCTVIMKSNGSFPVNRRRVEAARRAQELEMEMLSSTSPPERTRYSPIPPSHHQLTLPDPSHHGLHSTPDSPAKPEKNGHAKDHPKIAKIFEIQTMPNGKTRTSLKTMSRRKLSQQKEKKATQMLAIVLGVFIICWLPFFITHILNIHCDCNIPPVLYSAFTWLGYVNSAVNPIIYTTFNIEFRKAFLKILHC

COc1ccc(N2CCN(Cc3c[nH]c4ncccc34)CC2)cc1 [Example 2, 3-(4-[4-Methoxyphenyl]piperazin-1-yl)methyl-1H-pyrrolo[2,3-b]pyridine]
Ki ([1]; human D4, clonal cell line membranes, 0.2 nM [3H]-spiperone): 1.3 nM
D4 :D2 ratio ([1]; ratio of Ki values, selectivity for D4 over D2, 60 min): greater than 1150
Ki ([2]; human D2, clonal cell line membranes, 0.2 nM [3H]-spiperone, read-out: Ki value for the D2 subtype): > 1500 nM

Clc1ccc(N2CCN(Cc3c[nH]c4ncccc34)CC2)cc1 [Example 5, 3-(4-[4-Chlorophenyl]piperazin-1-yl)methyl-1H-pyrrolo[2,3-b]pyridine]
Ki [2]: 860 nM
sedation (spontaneous motor activity) (rats; doses of up to 10-30 mg/kg): no evidence for sedation
potential to induce extrapyramidal side-effects (apomorphine-induced stereotypy) (rat; doses up to 1.0 mg/kg): no potential to induce the extrapyramidal side-effects

O=C(CCCN1CCC(O)(c2ccc(Cl)cc2)CC1)c1ccc(F)cc1 [haloperidol, reference compound]
sedation (spontaneous motor activity) (rats; dose of 1 mg/kg): marked sedation
potential to elicit extrapyramidal side-effects (apomorphine-induced stereotypy) (rat; doses of 0.5 and 1.0 mg/kg): significant potential to elicit extrapyramidal side-effects
